According to PubChem BioAssay AID328 (DTP/NCI, 2004):
Toxic doses and inconclusive results are not listed. Rule for the calls: active = survival T/C of 150% or more; inactive = T/C below 125% in these data.

System: BDF1 mice, P388 leukemia ip, median survival T/C
Assay: NCI In Vivo Anticancer Drug Screen. Data for tumor model P388 Leukemia (intraperitoneal) in B6D2F1 (BDF1) mice
Details: endpoint: median survival time, higher = longer survival
Summary of the method: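 Antitumour effect was judged in vivo: survival in drug-treated mice, normalised to that of vehicle-dosed controls, gives the reported T/C.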

[1] = dose: 50.0 mg/kg/injection, schedule: Q01DX009 (ip), vehicle: saline
[2] = dose: 100.0 mg/kg/injection, schedule: Q01DX009 (ip), vehicle: saline
[3] = dose: 200.0 mg/kg/injection, schedule: Q01DX009 (ip), vehicle: saline
[4] = dose: 25.0 mg/kg/injection, schedule: Q01DX009 (ip), vehicle: other
[5] = dose: 25.0 mg/kg/injection, schedule: Q04DX003 (ip), vehicle: saline with Tween-80
[6] = dose: 100.0 mg/kg/injection, schedule: Q04DX003 (ip), vehicle: saline
[7] = dose: 200.0 mg/kg/injection, schedule: Q04DX003 (ip), vehicle: saline
[8] = dose: 400.0 mg/kg/injection, schedule: Q04DX003 (ip), vehicle: saline
[9] = dose: 25.0 mg/kg/injection, schedule: Q01DX009 (ip), vehicle: Klucel (hydroxypropylcellulose) (HPC)
[10] = dose: 50.0 mg/kg/injection, schedule: Q01DX009 (ip), vehicle: Klucel (hydroxypropylcellulose) (HPC)
[11] = dose: 100.0 mg/kg/injection, schedule: Q01DX009 (ip), vehicle: Klucel (hydroxypropylcellulose) (HPC)
[12] = dose: 200.0 mg/kg/injection, schedule: Q01DX009 (ip), vehicle: Klucel (hydroxypropylcellulose) (HPC)
[13] = dose: 100.0 mg/kg/injection, schedule: Q04DX003 (ip), vehicle: Klucel (hydroxypropylcellulose) (HPC)
[14] = dose: 200.0 mg/kg/injection, schedule: Q04DX003 (ip), vehicle: Klucel (hydroxypropylcellulose) (HPC)
[15] = dose: 200.0 mg/kg/injection, schedule: Q04DX003 (ip), vehicle: saline with Tween-80
[16] = dose: 400.0 mg/kg/injection, schedule: Q04DX003 (ip), vehicle: saline with Tween-80
[17] = dose: 50.0 mg/kg/injection, schedule: Q01DX009 (ip), vehicle: saline with Tween-80

Measured: T/C

CCOC(=O)C(=NN(C)C)C(=O)OCC
inactive: [1] 104 % of control | [2] 92 % of control | [3] 101 % of control

CC[n+]1c(-c2ccccc2)c2cc(N)ccc2c2ccc(N)cc21 (tested in a mixture with another compound)
inactive: [4] 112 % of control | dose: 50.0 mg/kg/injection, schedule: Q01DX009 (ip), vehicle: other 112 % of control

C[S+](C)N(c1ccccc1)C(C)(C)C
inactive: dose: 12.5 mg/kg/injection, schedule: Q04DX003 (ip), vehicle: saline with Tween-80 99 % of control | [5] 104 % of control | dose: 50.0 mg/kg/injection, schedule: Q04DX003 (ip), vehicle: saline with Tween-80 89 % of control

COc1ccc(-c2cc(=O)c3ccc4cc(OC)c(OC)cc4c3o2)cc1
inactive: dose: 1.56 mg/kg/injection, schedule: Q01DX009 (ip), vehicle: distilled water + Tween-80 102 % of control | dose: 3.13 mg/kg/injection, schedule: Q01DX009 (ip), vehicle: distilled water + Tween-80 86 % of control | dose: 6.25 mg/kg/injection, schedule: Q01DX009 (ip), vehicle: distilled water + Tween-80 87 % of control | dose: 12.5 mg/kg/injection, schedule: Q01DX009 (ip), vehicle: distilled water + Tween-80 89 % of control

Oc1ccc(F)c2cccnc12
inactive: dose: 12.5 mg/kg/injection, schedule: Q01DX010 (ip), vehicle: carboxymethylcellulose (CMC) 100 % of control | dose: 25.0 mg/kg/injection, schedule: Q01DX010 (ip), vehicle: carboxymethylcellulose (CMC) 105 % of control | dose: 50.0 mg/kg/injection, schedule: Q01DX010 (ip), vehicle: carboxymethylcellulose (CMC) 100 % of control

CC12CC3(O)CCC1CCC2C(=O)C3 (stereo unspecified)
inactive: [6] 118 % of control | [7] 109 % of control | [8] 122 % of control

Oc1ccc(Br)c2cccnc12
inactive: [9] 91 % of control | [10] 111 % of control | [11] 98 % of control | [12] 102 % of control | dose: 200.0 mg/kg/injection, schedule: Q01DX010 (ip), vehicle: saline 100 % of control

Cc1cc([N+](=O)[O-])cc(C)c1OC(=O)c1ccc(N=C(N)N)cc1
inactive: dose: 6.25 mg/kg/injection, schedule: Q01DX009 (ip), vehicle: saline 93 % of control | dose: 12.5 mg/kg/injection, schedule: Q01DX009 (ip), vehicle: saline 101 % of control | dose: 12.5 mg/kg/injection, schedule: Q04DX003 (ip), vehicle: saline 104 % of control | dose: 25.0 mg/kg/injection, schedule: Q01DX009 (ip), vehicle: saline 97 % of control | dose: 25.0 mg/kg/injection, schedule: Q04DX003 (ip), vehicle: saline 102 % of control | [1] 95 % of control | dose: 50.0 mg/kg/injection, schedule: Q04DX003 (ip), vehicle: saline 101 % of control | [6] 95 % of control

CC12CCCCC1C/C(=N/NC(N)=O)CC2 (stereo unspecified)
inactive: dose: 5.0 mg/kg/injection, schedule: Q01DX001 (ip), vehicle: saline 100 % of control | dose: 10.0 mg/kg/injection, schedule: Q01DX001 (ip), vehicle: saline 100 % of control | dose: 20.0 mg/kg/injection, schedule: Q01DX001 (ip), vehicle: saline 100 % of control | dose: 40.0 mg/kg/injection, schedule: Q01DX001 (ip), vehicle: saline 104 % of control

CCN(CC)c1ccc(N)cc1
inactive: dose: 6.25 mg/kg/injection, schedule: Q04DX003 (ip), vehicle: other 100 % of control | dose: 12.5 mg/kg/injection, schedule: Q01DX009 (ip), vehicle: other 100 % of control | dose: 12.5 mg/kg/injection, schedule: Q04DX003 (ip), vehicle: other 115 % of control | [4] 120 % of control | dose: 25.0 mg/kg/injection, schedule: Q04DX003 (ip), vehicle: other 110 % of control

CN1CCCCCC1
inactive: dose: 150.0 mg/kg/injection, schedule: Q01DX009 (ip), vehicle: saline 95 % of control | dose: 225.0 mg/kg/injection, schedule: Q01DX009 (ip), vehicle: saline 104 % of control | dose: 335.0 mg/kg/injection, schedule: Q01DX009 (ip), vehicle: saline 86 % of control

C=CCNC(=S)Nc1ccc(C)cc1
inactive: dose: 50.0 mg/kg/injection, schedule: Q04DX003 (ip), vehicle: Klucel (hydroxypropylcellulose) (HPC) 112 % of control | [13] 104 % of control | [14] 91 % of control

NC(=S)N/N=C\c1nccc2c(C(F)(F)F)cccc12
inactive: [5] 106 % of control

O=C(C=P(c1ccccc1)(c1ccccc1)c1ccccc1)CCl
inactive: dose: 6.25 mg/kg/injection, schedule: Q01DX009 (ip), vehicle: Klucel (hydroxypropylcellulose) (HPC) 91 % of control | dose: 6.25 mg/kg/injection, schedule: Q04DX003 (ip), vehicle: Klucel (hydroxypropylcellulose) (HPC) 100 % of control | dose: 12.5 mg/kg/injection, schedule: Q01DX009 (ip), vehicle: Klucel (hydroxypropylcellulose) (HPC) 91 % of control | dose: 12.5 mg/kg/injection, schedule: Q04DX003 (ip), vehicle: Klucel (hydroxypropylcellulose) (HPC) 100 % of control | [9] 100 % of control | dose: 25.0 mg/kg/injection, schedule: Q04DX003 (ip), vehicle: Klucel (hydroxypropylcellulose) (HPC) 100 % of control

COc1cc2c(c3c1c(=O)c1cc(O)ccc1n3C)C=CC(C)(C)O2
inactive: dose: 5.0 mg/kg/injection, schedule: Q01DX009 (ip), vehicle: Klucel (hydroxypropylcellulose) (HPC) 114 % of control | dose: 10.0 mg/kg/injection, schedule: Q01DX009 (ip), vehicle: Klucel (hydroxypropylcellulose) (HPC) 113 % of control | dose: 20.0 mg/kg/injection, schedule: Q01DX009 (ip), vehicle: Klucel (hydroxypropylcellulose) (HPC) 112 % of control | dose: 40.0 mg/kg/injection, schedule: Q01DX009 (ip), vehicle: Klucel (hydroxypropylcellulose) (HPC) 106 % of control

COC(=O)C1C(O)C(C)C(O)C(C)(O)C=C(C)C2=C3C(=C(C)C(=O)c4c(O)c(c(C)c(OC(C)=O)c43)NC(=O)C(C)=C/C=C\C(C)(O)C(O)C(C)C1O)OCO2 (stereo unspecified)
inactive: [10] 119 % of control | [11] 110 % of control | [12] 116 % of control

CCOC(=O)C(Br)c1cccc(OC)c1 (stereo unspecified)
inactive: dose: 100.0 mg/kg/injection, schedule: Q04DX003 (ip), vehicle: saline with Tween-80 100 % of control | [15] 100 % of control | [16] 110 % of control

C[C@]12CC[C@@H]3c4ccc(O)cc4CC[C@H]3[C@@H]1CCC(=O)O2
inactive: [11] 91 % of control | [13] 104 % of control | [12] 91 % of control | [14] 90 % of control | dose: 400.0 mg/kg/injection, schedule: Q04DX003 (ip), vehicle: Klucel (hydroxypropylcellulose) (HPC) 100 % of control

O=[N+]([O-])c1cccc2c1ccc[n+]2Cc1ccccc1
inactive: dose: 12.5 mg/kg/injection, schedule: Q01DX009 (ip), vehicle: saline with Tween-80 112 % of control | dose: 25.0 mg/kg/injection, schedule: Q01DX009 (ip), vehicle: saline with Tween-80 115 % of control | [17] 122 % of control

O=c1[nH]c(=O)n(CC(O)c2ccc(Cl)s2)cc1F (stereo unspecified)
inactive: [15] 103 % of control | [16] 117 % of control

CN(C)c1ccc(/C=C/c2ccnc3c(-c4ccccc4)cccc23)cc1
inactive: [17] 89 % of control | dose: 100.0 mg/kg/injection, schedule: Q01DX009 (ip), vehicle: saline with Tween-80 91 % of control

COC(=O)C1CSC2(CCCN(Cc3ccccc3)C2)N1 (stereo unspecified)
inactive: [1] 113 % of control | [2] 119 % of control | [3] 96 % of control

O=CNC(Cc1ccc(O)cc1)C(=O)O (stereo unspecified)
inactive: [6] 110 % of control | [7] 100 % of control | [8] 100 % of control
